# Laboratory results published in US9546193B2, “Compositions and methods for 18F-fluorodeoxyglycosylamines” (The Regents of the University of California, priority 2013, dated 2017).
# Where two headings read alike, the source gives them in different places.
# Legend:
# Assay type in all cases: binding
# [1] = system: postmortem human brain Aβ-amyloid sites
# Source text: (§1) The brain sections were air dried, exposed overnight on a phosphor film, and then placed on the Phosphor Autoradiographic Imaging System/Cyclone Storage Phosphor System (Packard Instruments Co).
# as §1
# [2] = system: human Aβ-amyloid plaques; experiment: 3H-PIB competition autoradiography on postmortem AD brain sections; conditions: 10 μM competitor; postmortem AD human brain slices; preliminary studies
# Method: ^3H-PIB Binding: Human hippocampus sections (7 μm thick) were preincubated in 10% alcohol PBS buffer for 10 minutes. The brain sections were placed in a glass chamber and incubated with [^3H]-PIB (2 μCi/cc) in 10% alcohol PBS buffer, pH 7.4 at 37° C. for 1 hr. The slices were then washed with cold 10% alcohol PBS buffer (2×3 mins), cold deionized water 1 min, respectively. The brain sections were air dried, exposed overnight on a phosphor film, and then placed on the Phosphor Autoradiographic imaging System/Cyclone Storage Phosphor System (Packard Instruments Co). Regions of interest (ROIs) were drawn on the slices and the extent of binding of ^3H-PIB was measured with DLU/mm2 using the OptiQuant acquisition and analysis program (Packard Instruments Co).
# Since FDGBTA is an analog of PIB, which is known to bind to human Aβ-amyloid plaques, the inventors tested competition of both PIB and FDGBTA with postmortem human brain Aβ-amyloid sites labeled with ^3H-PIB as is illustrated in Panel A of FIG. 5, with the corresponding photomicrographs in Panel B of FIG. 5.
# [3] = system: Aβ-Amyloid plaques; experiment: Human brain homogenate assay, displacement of 3H-PIB; conditions: 3H-PIB displacement curve; rFDGBTA 10^−11 to 10^−4 M; PBS buffer, 10% alcohol, pH 7.4
# Method: rFDGBTA: Reductive amination was carried out at room temperature using an anhydrous solution of molecular sieves, methanol and acetic acid. The yield for the reduced rFDGBTA was 94%. Human brain homogenate assay of rFDGBTA for Aβ-Amyloid plaques was investigated. The homogenate was suspended in different concentrations of rFDGBTA (10^−11 to 10^−4M) in the assay buffer (PBS buffer, 10% alcohol, pH 7.4). Nonspecific binding was determined by including […]. Total assay volume was 0.25 ml.
molecule,measurement,setting,value
[11CH3]Nc1ccc(-c2nc3ccc(O)cc3s2)cc1 [11C-PIB],binding to AD brain grey matter / Aβ-amyloid plaques (in words),"[1]; postmortem AD human brain sections, autoradiography",significant binding
same,"ratio of binding, AD brain versus control subjects (grey matter)","[1]; postmortem human hippocampus sections, autoradiography",6
OCC1OC(Nc2ccc(-c3nc4ccc(O)cc4s3)cc2)C(F)C(O)C1O (centres unmarked) [FDGBTA],reduction of 3H-PIB binding in the grey matter areas,[2],80%
2-^18F-Fluorodeoxyglucose [18F-FDG],binding to AD brain grey matter / Aβ-amyloid plaques (in words),[1],did not exhibit any binding
OCC(O)C(O)C(O)C(F)CNc1ccc(-c2nc3ccc(O)cc3s2)cc1 (centres unmarked) [rFDGBTA],binding compared to PIB (times weaker),[3],~100 times
